Values after ≈ are worked out from the molar mass of the structure shown.
Tests used:
Assay in all cases: In vitro susceptibility testing, MIC by NCCLS broth microdilution
[1] = test system: E. coli OC2605; format: cell-based; details: CAMHB, 35° C., 16-20 h
Protocol: (§1) Minimum inhibitory concentrations (“MICs”) were determined by the NCCLS broth microdilution procedure for susceptibility testing for bacteria that grow aerobically (National Committee for Clinical Laboratory Standards, 1997. Methods for dilution antimicrobial Susceptibility tests for bacteria that grow aerobically, 4th ed. Approved standard. NCCLS Document M7-A4. National Committee for Clinical Laboratory Standards, Villanova, Pa.). stock solutions were prepared on the day of the test and appropriate aliquots were added to cation adjusted Mueller-Hinton broth (CAMHB) or Haemophilus test media. Two-fold serial dilutions were prepared and added to wells in microtiter plates. Final test concentrations ranged from 16 to 0.015 μg/ml. Broth cultures of bacteria inoculated from growth on overnight plates for all test bacteria except Streptococcus pneumoniae and Haemophilus influenzae were incubated at 35° C. and then adjusted to the Kirby Bauer standard and diluted in CAMHB to achieve a final inoculum concentration of approximately 5×10^5 CFU/ml. Inocula for S. pneumoniae and H. influenzae were prepared by directly suspending colonies from an overnight plate, adjusting the turbidity and diluting as above. S. pneumoniae media was supplemented with 2.5% lysed horse blood. All plates were incubated in ambient air at 35° C. for […] for S. peteumoniae and Haemophilus influenzae and 16-20 h for all other bacteria.

[2] = test system: S. aureus ATCC29213; format: cell-based; details: CAMHB, 35° C., 16-20 h
Protocol: as §1

[3] = test system: E. faecalis ATCC29212; format: cell-based; details: CAMHB, 35° C., 16-20 h
Protocol: as §1

[4] = test system: H. influenzae OC4883; format: cell-based, Haemophilus influenzae; details: Haemophilus test media, 35° C.
Protocol: (§2) Minimum inhibitory concentrations (“MICs”) were determined by the NCCLS broth microdilution procedure for susceptibility testing for bacteria that grow aerobically (National Committee for Clinical Laboratory Standards, 1997. Methods for dilution antimicrobial Susceptibility tests for bacteria that grow aerobically, 4th ed. Approved standard. NCCLS Document M7-A4. National Committee for Clinical Laboratory Standards, Villanova, Pa.). stock solutions were prepared on the day of the test and appropriate aliquots were added to cation adjusted Mueller-Hinton broth (CAMHB) or Haemophilus test media. Two-fold serial dilutions were prepared and added to wells in microtiter plates. Final test concentrations ranged from 16 to 0.015 μg/ml. Broth cultures of bacteria inoculated from growth on overnight plates for all test bacteria except Streptococcus pneumoniae and Haemophilus influenzae were incubated at 35° C. and then adjusted to the Kirby Bauer standard and diluted in CAMHB to achieve a final inoculum concentration of approximately 5×10^5 CFU/ml. Inocula for S. pneumoniae and H. influenzae were prepared by directly suspending colonies from an overnight plate, adjusting the turbidity and diluting as above. S. pneumoniae media was supplemented with 2.5% lysed horse blood. […]

[5] = test system: S. pneumoniae ATCC49619; format: cell-based, Streptococcus pneumoniae; details: media with 2.5% lysed horse blood, 35° C.
Protocol: as §2

CC[C@H]1OC(=O)[C@H](C)[C@@H](O[C@H]2C[C@@](C)(OC)[C@@H](O)[C@H](C)O2)[C@H](C)[C@@H](O[C@@H]2O[C@H](C)C[C@H](N(C)C)[C@H]2O)[C@](C)(O)C[C@@H](C)C(=O)[C@H](C)[C@@H](O)[C@]1(C)O [Erythromycin]
MIC ([1]; Escherichia coli, OC2605, Table 3, Table 2 compounds): > 16 µg/mL
In Vitro Susceptibility (MIC) E. coli OC2605 ([1]; Table 4, Formula III compounds): >16 µg/mL
MIC ([2]; Staphylococcus aureus, ATCC29213, Table 3, Table 2 compounds): 0.5 µg/mL (≈ 0.681 µM)
In Vitro Susceptibility (MIC) S. aureus ATCC29213 ([2]; Table 4, Formula III compounds): 0.5 µg/mL
MIC ([3]; Enterococcus faecalis, ATCC29212, Table 3, Table 2 compounds): 1 µg/mL (≈ 1.36 µM)
In Vitro Susceptibility (MIC) E. faecalis ATCC29212 ([3]; Table 4, Formula III compounds): 1 µg/mL
MIC ([4]; Haemophilus influenzae, OC4883, Table 3, Table 2 compounds): 1 µg/mL (≈ 1.36 µM)
In Vitro Susceptibility (MIC) H. influenzae OC4883 ([4]; Table 4, Formula III compounds): 1 µg/mL
MIC ([5]; Streptococcus pneumoniae, ATCC49619, Table 3, Table 2 compounds): 0.06 µg/mL (≈ 0.0818 µM)
In Vitro Susceptibility (MIC) S. pneumoniae ATCC49619 ([5]; Table 4, Formula III compounds): 0.06 µg/mL

— patent publication US6590083B1, “Ketolide antibacterials” (Ortho-McNeil Pharmaceutical, Inc., priority 1999, dated 2003)
